Substitutions are numbered along the chain they refer to. pEC50, pIC50: −log10 of the molar value. ≈ marks a conversion by molar mass, not a printed value. Calls of active or inactive are those of the source. The rule behind the calls is not given here.
Experiments:
[1] = target: T1, Peroxisome proliferator-activated receptor gamma (Homo sapiens, UniProt P37231)
T1 sequence (P37231 whole entry): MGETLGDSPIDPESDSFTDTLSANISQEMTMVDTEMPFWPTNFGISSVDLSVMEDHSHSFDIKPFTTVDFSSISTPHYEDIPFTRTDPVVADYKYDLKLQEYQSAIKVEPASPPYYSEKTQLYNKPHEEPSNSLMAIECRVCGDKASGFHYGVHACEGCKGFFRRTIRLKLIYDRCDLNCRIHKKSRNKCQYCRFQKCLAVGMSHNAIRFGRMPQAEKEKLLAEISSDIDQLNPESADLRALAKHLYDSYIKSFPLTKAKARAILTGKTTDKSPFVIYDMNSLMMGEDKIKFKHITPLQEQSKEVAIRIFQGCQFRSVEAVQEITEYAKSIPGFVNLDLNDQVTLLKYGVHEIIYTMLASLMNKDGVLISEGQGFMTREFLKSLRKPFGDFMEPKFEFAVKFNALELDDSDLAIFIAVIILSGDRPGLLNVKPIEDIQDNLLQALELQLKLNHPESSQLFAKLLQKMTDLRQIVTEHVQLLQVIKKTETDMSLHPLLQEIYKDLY
Description: Partial agonist activity at human PPARgamma-LBD expressed in CHO-K1 cells co-transfected with GAL4 assessed as luciferase activity by transactivation assay

[2] = system: Mus musculus; assay: Antidiabetic activity in db/db mouse assessed as weight gain at 10 to 100 mg/kg, po qd for 7 days; type: functional, organism-based
[3] = system: Mus musculus; assay: Antidiabetic activity in db/db mouse assessed as reduction of plasma glucose level at 100 mg/kg, po qd for 7 days; type: functional; set-up: scale not given: the % may be the effect or the level left
[4] = system: Mus musculus; assay: Antidiabetic activity in db/db mouse assessed as reduction of plasma glucose level at 30 mg/kg, po qd for 7 days; type: functional; set-up: scale not given: the % may be the effect or the level left
[5] = system: Mus musculus; assay: Antidiabetic activity in db/db mouse assessed as reduction of plasma glucose level at 10 mg/kg, po qd for 7 days; type: functional; set-up: scale not given: the % may be the effect or the level left
[6] = Oral bioavailability in mouse at 1 mg/kg; type: ADME, organism-based; conditions: in vivo
[7] = AUC in mouse at 1 mg/kg, iv; type: ADME, organism-based; set-up: dose 1 mg/kg, route intravenous; conditions: plasma
[8] = Half life in mouse at 1 mg/kg, iv; type: ADME, organism-based; set-up: dose 1 mg/kg, route intravenous; conditions: in vivo
[9] = Volume of distribution in mouse at 1 mg/kg, iv; type: ADME, organism-based; set-up: dose 1 mg/kg, route intravenous; conditions: in vivo
[10] = Clearance in mouse at 1 mg/kg, iv; type: ADME, organism-based; set-up: dose 1 mg/kg, route intravenous; conditions: in vivo
[11] = system: 3T3-L1; assay: Induction of adipogenesis in mouse blast 3T3L1 cells assessed as P2 mRNA expression level after 7 days […]; type: cell-based; conditions: 3t3-l1, 168 h
[12] = Solubility in water; type: physicochemical
[13] = AUC in mouse at 1 mg/kg, po; type: ADME, organism-based; set-up: dose 1 mg/kg, route oral; conditions: plasma
[14] = Plasma concentration in mouse at 1 mg/kg, iv after 10 mins; type: ADME, organism-based; set-up: dose 1 mg/kg, route intravenous
[15] = target: T2, Peroxisome proliferator-activated receptor gamma (Rattus norvegicus, UniProt O88275)
T2 sequence (O88275 whole entry): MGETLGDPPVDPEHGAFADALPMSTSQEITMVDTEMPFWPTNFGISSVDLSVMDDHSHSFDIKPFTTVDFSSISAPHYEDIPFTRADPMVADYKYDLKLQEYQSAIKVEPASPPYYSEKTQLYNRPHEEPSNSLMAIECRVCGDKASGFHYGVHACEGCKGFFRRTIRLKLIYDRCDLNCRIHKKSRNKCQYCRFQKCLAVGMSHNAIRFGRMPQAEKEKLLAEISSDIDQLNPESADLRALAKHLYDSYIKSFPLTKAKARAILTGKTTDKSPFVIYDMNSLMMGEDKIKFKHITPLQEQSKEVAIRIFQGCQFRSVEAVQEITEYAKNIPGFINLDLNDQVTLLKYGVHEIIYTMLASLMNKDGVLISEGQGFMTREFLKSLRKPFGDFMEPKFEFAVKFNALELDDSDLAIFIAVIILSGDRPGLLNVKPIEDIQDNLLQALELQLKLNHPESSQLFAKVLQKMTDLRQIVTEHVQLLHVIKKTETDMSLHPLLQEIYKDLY
Description: Antagonist activity at rat PPARgamma-LBD expressed in CHO-K1 cells co-transfected with GAL4 assessed as inhibition of rosiglitazone-induced luciferase activity by transactivation assay

[16] = target: T1, Peroxisome proliferator-activated receptor gamma; remark: listed apart in the source
Description: Antagonist activity at human PPARgamma-LBD expressed in CHO-K1 cells co-transfected with GAL4 assessed as inhibition of rosiglitazone-induced luciferase activity by transactivation assay

[17] = target: T2, Peroxisome proliferator-activated receptor gamma; remark: listed apart in the source
Description: Partial agonist activity at rat PPARgamma-LBD expressed in CHO-K1 cells co-transfected with GAL4 assessed as luciferase activity by transactivation assay

[18] = target: T3, Peroxisome proliferator-activated receptor gamma (Mus musculus, UniProt P37238)
T3 sequence (P37238 whole entry): T2 sequence (O88275 whole entry) with P8S, D54E, S383N
Description: Antagonist activity at mouse PPARgamma-LBD expressed in CHO-K1 cells co-transfected with GAL4 assessed as inhibition of rosiglitazone-induced luciferase activity by transactivation assay

[19] = target: T3, Peroxisome proliferator-activated receptor gamma; remark: listed apart in the source
Description: Partial agonist activity at mouse PPARgamma-LBD expressed in CHO-K1 cells co-transfected with GAL4 assessed as luciferase activity by transactivation assay

[20] = system: 3T3-L1; assay: Induction of adipogenesis in mouse 3T3L1 cells assessed as increase in lipid accumulation by Oil red O staining
[21] = system: Mus musculus; assay: Antidiabetic activity in db/db mouse assessed as weight gain at 3 to 10 mg/kg, po qd for 7 days; type: functional, organism-based
[22] = system: 3T3-L1; assay: Induction of adipogenesis in mouse mature 3T3L1 cells assessed as P2 mRNA expression level after 10 days […]; type: cell-based; conditions: 3t3-l1, 240 h
[23] = target: T4, Peroxisome proliferator-activated receptor gamma (Homo sapiens) (UniProt P37231); assay: Partial agonist activity at human PPARgamma-LBD expressed in CHO-K1 cells co-transfected with GAL4 assessed as luciferase activity at […] by transactivation assay relative to rosiglitazone; type: functional, cell-based
T4 sequence (whole entry): T1 sequence (P37231 whole entry)

[24] = target: T4, Peroxisome proliferator-activated receptor gamma (Homo sapiens); assay: Partial agonist activity at human PPARgamma-LBD expressed in CHO-K1 cells co-transfected with GAL4 assessed as luciferase activity at 10 uM by transactivation assay; type: functional, cell-based

CSc1nc(NC2CC2)c(C(=O)O)c(SCc2ccccc2)n1
pEC50 [1]: 5.74

CSc1nc(SCc2ccccc2)c(C(=O)O)c(SCc2ccccc2)n1
Activity [2]: inactive
Activity [3]: 77%
Activity [4]: 56%
Activity [5]: 27%
bioavailability [6]: 35.8%
AUC [7]: 8860 ng·h/mL
half-life [8]: 45.6 min
Vd [9]: 0.12 L/kg
clearance [10]: 1.88 mL/min/kg
Activity [11]: Not Active
solubility [12]: 43.7 µg/mL (≈ 105 µM)
AUC [13]: 3170 ng·h/mL
concentration at 10 min [14]: 6890 ng/mL
pIC50 [15]: 6.27
pIC50 [16]: 5.75
pEC50 [17]: 6.80
pEC50 [1]: 6.85
pIC50 [18]: 5.75
pEC50 [19]: 6.80
Activity [20]: Active

CSc1nc(Cl)c(C(=O)NCc2ccccc2)c(NCc2ccccc2)n1
pEC50 [1]: 5.30

CSc1nc(NCc2ccccc2)c(C(=O)O)c(OCc2ccccc2)n1
pEC50 [1]: 5.64

CN(CCOc1ccc(CC2SC(=O)NC2=O)cc1)c1ccccn1 (stereo not drawn) [ROSIGLITAZONE]
Activity [21]: inactive
Activity [5]: 67%
Activity [22]: Dose-dependent effect
Activity [11]: Dose-dependent effect
Activity [20]: Active

CCCCN(CCCC)c1nc(NCc2ccccc2)c(C(=O)O)c(SCc2ccccc2)n1
pEC50 [1]: < 5.00

CCCCSc1nc(NCc2ccccc2)c(C(=O)O)c(SCc2ccccc2)n1
pEC50 [1]: 6.26

CSc1nc(NCc2ccccn2)c(C(=O)O)c(SCc2ccccc2)n1
pEC50 [1]: 6.60

CCCCN(C)c1nc(NCc2ccccc2)c(C(=O)O)c(SCc2ccccc2)n1
pEC50 [1]: 6.38

O=C(O)c1c(NCc2ccccc2)ncnc1SCc1ccccc1
pEC50 [1]: < 5.00

CSc1nc(NCc2ccccc2)c(C(=O)O)c(-c2cccs2)n1
Activity [23]: inactive
pEC50 [1]: < 5.00

CNc1nc(SC)nc(SCc2ccccc2)c1C(=O)O
pEC50 [1]: < 5.00

CCCCCCCNc1nc(NCc2ccccc2)c(C(=O)O)c(SCc2ccccc2)n1
pEC50 [1]: 6.60

CSc1nc(NCCc2ccccc2)c(C(=O)O)c(SCc2ccccc2)n1
pEC50 [1]: 6.17

CSc1nc(NCc2ccncc2)c(C(=O)O)c(SCc2ccccc2)n1
pEC50 [1]: 5.57

CCCCCCCCSc1nc(NCc2ccccc2)c(C(=O)O)c(SCc2ccccc2)n1
pEC50 [1]: 6.02

CSc1nc(NCC2CCCCC2)c(C(=O)O)c(SCc2ccccc2)n1
pEC50 [1]: 6.52

CSc1nc(Nc2ccccc2)c(C(=O)O)c(SCc2ccccc2)n1
pEC50 [1]: 5.80

CSc1nc(C)c(C(=O)NCc2ccccc2)c(NCc2ccccc2)n1
Activity [24]: inactive

CSc1nc(NCc2cccnc2)c(C(=O)O)c(SCc2ccccc2)n1
pEC50 [1]: 6.13

CCCNc1nc(SC)nc(SCc2ccccc2)c1C(=O)O
pEC50 [1]: < 5.00

CSc1nc(NCc2ccccc2)c(C(=O)O)c(SCc2ccccc2)n1
solubility [12]: < 1 µg/mL
pEC50 [1]: 6.74

CCCCNc1nc(NCc2ccccc2)c(C(=O)O)c(SCc2ccccc2)n1
pEC50 [1]: 6.33
